Measurements published in patent publication EP0003008A1 (priority 1977, dated 1979).
Where “and” joins values, the source holds several entries; their conditions need not be identical. Equal values may be shown once. Read-outs that look alike come from different tables or passages of the source.

Experiments:
[1] = tested on: influenza (WSN Wilson Smith Neurotropic type A); experiment: Plaque assay of influenza (WSN) on cell monolayers; type: cell-based, influenza virus (WSN); conditions: conc. of test compound 500 μM, 34°C for 4 days, two values given
[2] = 10 µmol intraperitoneally, urine from two male mice
[3] = Acid stability test in 0.1 N HCl, thin layer chromatography estimate of decomposition products; type: physicochemical; conditions: 100 µg compound applied
Procedure: The acid stability was investigated by dissolving 5 mg of each compound in 1 ml of 0.1 N HC1 in a test tube. For use as references 0.2 ml of each solution was withdrawn, immediately treated with 0.2 ml of a 10 % aqueous solution of NaHCO3 and frozen. The remaining 0.8 ml of each solution was incubated at 37°C for 2 hours. After incubation, 0.8 ml of a 10 % aqueous solution of NaHCO3 was added to each solution and the solutions were frozen. The incubated compounds and the reference compounds were ly ophilized to dryness and redissolved in distilled H20, 0.2 ml and 1.0 ml respectively, for each reference solution and incubated solution. The solutions were applied to silica gel (Merck PF254, 20x20 cm) and polyethylene imine (Macherey-Nagel PEI, 20x20 cm) thin layer plates. A total of 20 µl of the reference solutions (100 µg compound) and 25 µl of the incubated solutions (100 µg compound) were applied. To each plate was also added, as references, solutions of phosphorous acid (H2HPO3) (5 and 20 µg) and of trisodiumphosphonoformate (5 and 20 µg). (Decomposition of phosphonoformic acid at low pH produces phosphorous acid).
The silica gel plates were prepared in duplicate and eluted with a solution composed of methanol - 10% aq ammonia - trichloroacetic acid - water (50-15-5-3, v/v) and the polyethylene imine plates were eluted with a 1M aq lithium chloride solution. After elution the plates were dried. One of the duplicated silica gel plates was sprayed with 4 % aq . (NH4)2MoO4 and the polyethylene imine plates were sprayed with a solution composed of 60 % HClO4 - 0.1N aq Hcl - 4% aq (NH4)2MoO4 - H2O (5-10-25-60, v/v). The silica gel plates were hriefly dried at 80-90°C and sprayed with 1% SnCl2 in 10% aq RCl. phosphorous acid and phosphonic acid groups appeared as blue apots on the siliea gel plates (System 1) and as white spots on the polyethylene imine plates (System II). The remaining duplicate silica gel plates were exposed to iodine vapor for detection of di- and triesters of phosphonoformic acid. […]

[4] = target: cell-free influenza polymerase (Influenza A virus, UniProt P03431); experiment: Cell-free influenza polymerase assay; type: biochemical; conditions: in diluted urine; assay mixture includes Mn2+; used as standard; read-out: 50% inhibition
[5] = incubated in 0.1 N HCl at 37°C for 2 hours

**Q.** With `CCOP(=O)(OCC)C(=O)N(CC)CC` [VIS 228, diethyl diethylcarbamoylphosphonate] as the compound, how does the “Inhibition (%)” value [1] read?
**A.** 25% and 37%

**Q.** With `CCN(CC)C(=O)P(=O)([O-])[O-].[Na+].[Na+]` [VIS 232, disodium diethylcarbamoylphosphonate] as the compound, how does the “Recovered phosphonoformic acid activity in urine” value ([2]; Day 1) read?
**A.** 0.63 µmol phosphonoformic acid

**Q.** And the “Recovered phosphonoformic acid activity in urine” value ([2]; Day 2)?
**A.** 0.36 µmol phosphonoformic acid

**Q.** What about the “Recovered phosphonoformic acid activity in urine” value ([2]; Day 3) of the same compound?
**A.** <0.01 µmol phosphonoformic acid

**Q.** Which “Estimated formation of phosphorous acid” value [3, 5] does the source give for `O=C(O)P(=O)(O)O` [Trisodiumphosphonoformate, reference compound] here?
**A.** > 20 µg

**Q.** And the “Recovered phosphonoformic acid activity in urine” value ([2]; Day 1)?
**A.** 1.25 µmol phosphonoformic acid

**Q.** And the “Recovered phosphonoformic acid activity in urine” value ([2]; Day 2)?
**A.** 0.13 µmol phosphonoformic acid

**Q.** And the “Recovered phosphonoformic acid activity in urine” value ([2]; Day 3)?
**A.** <0.01 µmol phosphonoformic acid

**Q.** Which IC50 [4] does the source give for `O=C(O)P(=O)(O)O` [Phosfonoformic acid, phosphonoformic acid] here?
**A.** 500 nM

**Q.** With `NC(=O)P(=O)(O)O` [R1=Na R2=Na R4=H R5=H] as the compound, how does the “Estimated formation of phosphorous acid” value [3, 5] read?
**A.** 15 µg

**Q.** What about the “Estimated formation of phosphorous acid” value ([3]; non-incubated reference solution (figure in parenthesis)) of the same compound?
**A.** 5 µg
